We go through 24 compounds from patent publication US11180462B2, “Microbiocidal oxadiazole derivatives” (SYNGENTA PARTICIPATIONS AG, priority 2015, dated 2021).

This assay deals with Glomerella lagenarium (Colletotrichum lagenarium). Put plainly: Fungicidal activity against Glomerella lagenarium (Colletotrichum lagenarium) liquid culture / cucumber / preventative (anthracnose). The following applies: Colletotrichum orbiculare; 20 ppm in the applied formulation; liquid culture (PDB), growth inhibition measured photometrically after 3 to 4 days; compared to untreated control; read-out: disease control. Type of assay: cell-based. In short, it runs like this:
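Photometric read-out of fungal growth after 2–7 days, expressed as percent antifungal activity versus untreated check. Cryo-stored conidia in PDB; compound at 20 ppm; dark, 24 °C, 96% RH.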
Take `CCC(COC)C(=O)N(Cc1ccc(-c2noc(C(F)(F)F)n2)cc1)C(C)CC` (stereo not drawn) [Compound 1.397, 2-(methoxymethyl)-N-sec-butyl-N-[[4-[5-(trifluoromethyl)-1,2,4-oxadiazol-3-yl]phenyl]methyl]-butanamide]: the inhibition of growth at 20 ppm is at least 80%. Turning to `CON(C(=O)CC(C)C)C(C)c1ccc(-c2noc(C(F)(F)F)n2)cc1` (stereo not drawn) [Compound 1.261, N-methoxy-3-methyl-N-[1-[4-[5-(trifluoromethyl)-1,2,4-oxadiazol-3-yl]phenyl]ethyl]-butanamide], the inhibition of growth at 20 ppm is at least 80%. The value for `CON(Cc1ccc(-c2noc(C(F)(F)F)n2)cc1)C(=O)OCC(C)(C)C` [Compound 2.18, 2,2-dimethylpropyl N-methoxy-N-[[4-[5-(trifluoromethyl)-1,2,4-oxadiazol-3-yl]phenyl]methyl]-carbamate] was at least 80%. The value for `CC(=O)C=CC(=O)N(Cc1ccc(-c2noc(C(F)(F)F)n2)cc1)CC1CCCO1` (stereo not drawn) [Compound 1.439, 4-oxo-N-(tetrahydrofuran-2-ylmethyl)-N-[[4-[5-(trifluoromethyl)-1,2,4-oxadiazol-3-yl]phenyl]methyl]-pent-2-enamide] was at least 80%; that for `CCC(C)C(=O)N(Cc1ccc(-c2noc(C(F)(F)F)n2)cc1)C(C)CC` (stereo not drawn) [Compound 1.394, 2-methyl-N-sec-butyl-N-[[4-[5-(trifluoromethyl)-1,2,4-oxadiazol-3-yl]phenyl]methyl]-butanamide] was at least 80%. Consider `CON(C(=O)CC1CC1)C(C)c1ccc(-c2noc(C(F)(F)F)n2)cc1` (stereo not drawn) [Compound 1.256, 2-cyclopropyl-N-methoxy-N-[1-[4-[5-(trifluoromethyl)-1,2,4-oxadiazol-3-yl]phenyl]ethyl]-acetamide], for which the inhibition of growth at 20 ppm was at least 80%. For `CCCCON(Cc1ccc(-c2noc(C(F)(F)F)n2)cc1)C(=O)C1CC1` [Compound 1.601, N-butoxy-N-[[4-[5-(trifluoromethyl)-1,2,4-oxadiazol-3-yl]phenyl]methyl]-cyclopropane-carboxamide], the inhibition of growth at 20 ppm was at least 80%. The value for `CCCON(Cc1ccc(-c2noc(C(F)(F)F)n2)cc1)C(=O)C=CC(C)=O` [Compound 1.310, 4-oxo-N-propoxy-N-[[4-[5-(trifluoromethyl)-1,2,4-oxadiazol-3-yl]phenyl]methyl]-pent-2-enamide] was at least 80%.

As for `CC1CC1C(=O)N(Cc1ccc(-c2noc(C(F)(F)F)n2)cc1)CC1CCCO1` (stereo not drawn) [Compound 1.428, 2-methyl-N-(tetrahydrofuran-2-ylmethyl)-N-[[4-[5-(trifluoromethyl)-1,2,4-oxadiazol-3-yl]phenyl]methyl]-cyclopropane-carboxamide], the inhibition of growth at 20 ppm was at least 80%. The value for `COc1cccc(C2(C(=O)N(Cc3ccc(-c4noc(C(F)(F)F)n4)cc3)OC)CC2)c1` [Compound 1.72, N-methoxy-1-(3-methoxyphenyl)-N-[[4-[5-(trifluoromethyl)-1,2,4-oxadiazol-3-yl]phenyl]methyl]-cyclopropane-carboxamide] was at least 80%; that for `CCCON(Cc1ccc(-c2noc(C(F)(F)F)n2)cc1)C(=O)C(C)C` [Compound 1.284, 2-methyl-N-propoxy-N-[[4-[5-(trifluoromethyl)-1,2,4-oxadiazol-3-yl]phenyl]methyl]-propanamide] was at least 80%. For the compound `O=C(Cc1ccccc1Cl)N(Cc1ccc(-c2noc(C(F)(F)F)n2)cc1)C1CC1` [Compound 1.94, 2-(2-chlorophenyl)-N-cyclopropyl-N-[[4-[5-(trifluoromethyl)-1,2,4-oxadiazol-3-yl]phenyl]methyl]-acetamide], the inhibition of growth at 20 ppm was at least 80%.

Regarding `CON(Cc1ccc(-c2noc(C(F)(F)F)n2)cc1)C(=O)c1ccc(Cl)cc1Cl` [Compound 1.9, 2,4-dichloro-N-methoxy-N-[[4-[5-(trifluoromethyl)-1,2,4-oxadiazol-3-yl]phenyl]methyl]-benzamide], the inhibition of growth at 20 ppm is at least 80%.

Take `CCCON(Cc1ccc(-c2noc(C(F)(F)F)n2)cc1)C(=O)C1CCCC1` [Compound 1.290, N-propoxy-N-[[4-[5-(trifluoromethyl)-1,2,4-oxadiazol-3-yl]phenyl]methyl]-cyclopentane-carboxamide]: the inhibition of growth at 20 ppm is at least 80%.

For the compound `C#CCN(Cc1ccc(-c2noc(C(F)(F)F)n2)cc1)C(=O)Cc1ccccc1Cl` [Compound 1.163, 2-(2-chlorophenyl)-N-prop-2-ynyl-N-[[4-[5-(trifluoromethyl)-1,2,4-oxadiazol-3-yl]phenyl]methyl]-acetamide], the inhibition of growth at 20 ppm is at least 80%. The value for `COC(C)C(=O)N(Cc1ccc(-c2noc(C(F)(F)F)n2)cc1)OCC=C(Cl)Cl` (stereo not drawn) [Compound 1.546, N-(3,3-dichloroallyloxy)-2-methoxy-N-[[4-[5-(trifluoromethyl)-1,2,4-oxadiazol-3-yl]phenyl]methyl]-propanamide] was at least 80%; that for `CCCON(Cc1ccc(-c2noc(C(F)(F)F)n2)cc1)C(=O)C1CCC1` [Compound 1.295, N-propoxy-N-[[4-[5-(trifluoromethyl)-1,2,4-oxadiazol-3-yl]phenyl]methyl]-cyclobutane-carboxamide] was at least 80%; that for `CCCC(=O)N(Cc1ccc(-c2noc(C(F)(F)F)n2)cc1)OCc1ccc(Cl)cc1` [Compound 1.554, N-[(4-chlorophenyl)-methoxy]-N-[[4-[5-(trifluoromethyl)-1,2,4-oxadiazol-3-yl]phenyl]methyl]-butanamide] was at least 80%. As for `COCCCC(=O)N(Cc1ccc(-c2noc(C(F)(F)F)n2)cc1)OCC=C(Cl)Cl` [Compound 1.543, N-(3,3-dichloroallyloxy)-4-methoxy-N-[[4-[5-(trifluoromethyl)-1,2,4-oxadiazol-3-yl]phenyl]methyl]-butanamide], the inhibition of growth at 20 ppm is at least 80%. Then `CCCON(Cc1ccc(-c2noc(C(F)(F)F)n2)cc1)C(=O)CC(C)C` [Compound 1.294, 3-methyl-N-propoxy-N-[[4-[5-(trifluoromethyl)-1,2,4-oxadiazol-3-yl]phenyl]methyl]-butanamide], with at least 80%. The value for `CCCON(Cc1ccc(-c2noc(C(F)(F)F)n2)cc1)C(=O)C1CSC1` [Compound 1.292, N-propoxy-N-[[4-[5-(trifluoromethyl)-1,2,4-oxadiazol-3-yl]pheny1]methyl]-thietane-3-carboxamide] was at least 80%.

Turning to `COC(C)C(=O)N(Cc1ccc(-c2noc(C(F)(F)F)n2)cc1)OCc1ccc(Cl)cc1` (stereo not drawn) [Compound 1.559, N-[(4-chlorophenyl)-methoxy]-2-methoxy-N-[[4-[5-(trifluoromethyl)-1,2,4-oxadiazol-3-yl]phenyl)methyl]-propanamide], the inhibition of growth at 20 ppm is at least 80%.

With `CCC(C)C(=O)N(Cc1ccc(-c2noc(C(F)(F)F)n2)cc1)OCC=C(Cl)Cl` (stereo not drawn) [Compound 1.542, N-(3,3-dichloroallyloxy)-2-methyl-N-[[4-[5-(trifluoromethyl)-1,2,4-oxadiazol-3-yl]phenyl]methyl]-butanamide], the inhibition of growth at 20 ppm is at least 80%. With `CCCCC(=O)N(Cc1ccc(-c2noc(C(F)(F)F)n2)cc1)OCCC` [Compound 1.322, N-propoxy-N-[[4-[5-(trifluoromethyl)-1,2,4-oxadiazol-3-yl]phenyl]methyl]-pentanamide], the inhibition of growth at 20 ppm was at least 80%.
